Our source for the IC50 values is US20240199587A1, “HETEROCYCLIC COMPOUNDS” (Hoffmann-La Roche Inc., priority 2021, published 2024).

The test has as its target T1, MAGL (Homo sapiens, UniProt Q99685).
T1 sequence (Q99685 1-303): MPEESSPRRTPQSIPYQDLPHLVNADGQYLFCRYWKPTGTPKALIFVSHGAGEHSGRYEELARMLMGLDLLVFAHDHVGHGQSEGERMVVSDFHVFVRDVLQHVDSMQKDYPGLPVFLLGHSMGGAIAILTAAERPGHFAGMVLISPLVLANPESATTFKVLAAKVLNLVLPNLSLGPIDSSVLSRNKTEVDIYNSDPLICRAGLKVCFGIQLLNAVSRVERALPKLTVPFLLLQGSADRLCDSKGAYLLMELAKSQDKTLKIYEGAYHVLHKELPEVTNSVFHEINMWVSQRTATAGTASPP
The test is described as follows: 2-AG assay (MAGL inhibitory activity, hydrolysis of 2-arachidonoylglycerol to arachidonic acid followed by mass spectrometry). Format: biochemical. The settings on record: 8 μM 2-arachidonoylglycerol, 15 min pre-incubation, 30 min incubation at RT, RapidFire MS readout. The method in brief:
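Human MAGL ([…] final) pre-incubated 15 min at RT with compound in 50 mM TRIS, 1 mM EDTA, 0.01% Tween-20, 2.5% DMSO; 8 μM 2-AG then added for 30 min at RT. Acetonitrile quench with d8-arachidonic acid; arachidonic acid measured by RapidFire SPE–MS/MS, activity from arachidonic acid/d8 ratio.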
In general, IC50 refers to the concentration that inhibits the measured activity by half. Read a high IC50 as weaker potency. In the case of `O=C(N1CC2(CCC(Cc3ccc(F)cn3)CC2)C1)N1CC2(CC(c3ccc(C(F)(F)F)nc3)C2)C1` [Example 516, [7-[(5-fluoro-2-pyridyl)methyl]-2-azaspiro[3.5]nonan-2-yl]-[6-[6-(trifluoromethyl)-3-pyridyl]-2-azaspiro[3.3]heptan-2-yl]methanone], the IC50 worked out at 699 nM.

Take `O=C(N1CC2(CCC(Cc3ccc(Cl)cn3)CC2)C1)N1CC2(CC(c3ccc(C(F)(F)F)nc3)C2)C1` [Example 517, [7-[(5-chloro-2-pyridyl)methyl]-2-azaspiro[3.5]nonan-2-yl]-[6-[6-(trifluoromethyl)-3-pyridyl]-2-azaspiro[3.3]heptan-2-yl]methanone]: the IC50 came out at 299 nM. In turn, `COc1cc(C(F)(F)F)ccc1CNC1CN(C(=O)N2CC3(CC(c4ccc(C(F)(F)F)nc4)C3)C2)C1` [Example 518, [3-[[2-methoxy-4-(trifluoromethyl)phenyl]methylamino]azetidin-1-yl]-[6-[6-(trifluoromethyl)-3-pyridyl]-2-azaspiro[3.3]heptan-2-yl]methanone] gave an IC50 of 610 nM. This IC50 is about 2-fold higher than that of the compound before. Turning to `O=C(N1CC2(CC(Cc3cnc(C(F)(F)F)cn3)C2)C1)N1CC2(CC(c3ccc(C(F)(F)F)nc3)C2)C1` [Example 519, [6-[[5-(trifluoromethyl)pyrazin-2-yl]methyl]-2-azaspiro[3.3]heptan-2-yl]-[6-[6-(trifluoromethyl)-3-pyridyl]-2-azaspiro[3.3]heptan-2-yl]methanone], the IC50 amounted to 154 nM. Against the preceding compound, the IC50 is about 4-fold lower. Regarding `O=C(N1CC(OCc2ccc(S(=O)(=O)C(F)(F)F)cc2)C1)N1CC2(CC(c3ccc(C(F)(F)F)nc3)C2)C1` [Example 520, [6-[6-(trifluoromethyl)-3-pyridyl]-2-azaspiro[3.3]heptan-2-yl]-[3-[[4-(trifluoromethylsulfonyl)phenyl]methoxy]azetidin-1-yl]methanone], inhibition was half-maximal at 544 nM (IC50). `O=C(N1CC2(CCC(Cc3ccc(OC(F)F)nc3)CC2)C1)N1CC2(CC(c3ccc(C(F)(F)F)nc3)C2)C1` [Example 521, [7-[[6-(difluoromethoxy)-3-pyridyl]methyl]-2-azaspiro[3.5]nonan-2-yl]-[6-[6-(trifluoromethyl)-3-pyridyl]-2-azaspiro[3.3]heptan-2-yl]methanone] displayed an IC50 of 379 nM. In turn, `O=C(N1CC2(CC(c3ccc(C(F)(F)F)nc3)C2)C1)N1CC2(CC(c3ccc(C(F)(F)F)nc3)C2)C1` [Example 522, bis[6-[6-(trifluoromethyl)-3-pyridyl]-2-azaspiro[3.3]heptan-2-yl]methanone] gave an IC50 of 849 nM. Compared with the last compound, the IC50 is about 2.2-fold higher.

Regarding `O=C(N1CC(c2ccc(N3CC(C(F)(F)F)C3)nc2)C1)N1CC2(CC(c3ccc(C(F)(F)F)nc3)C2)C1` [Example 523, [3-[6-[3-(trifluoromethyl)azetidin-1-yl]-3-pyridyl]azetidin-1-yl]-[6-[6-(trifluoromethyl)-3-pyridyl]-2-azaspiro[3.3]heptan-2-yl]methanone], it took 393 nM to reach half-maximal inhibition (IC50). `O=C(N1CC2(CC(Cc3ccc(C(F)(F)F)nc3)C2)C1)N1CC2(CC(c3ccc(C(F)(F)F)nc3)C2)C1` [Example 524, [6-[6-(trifluoromethyl)-3-pyridyl]-2-azaspiro[3.3]heptan-2-yl]-[6-[[6-(trifluoromethyl)-3-pyridyl]methyl]-2-azaspiro[3.3]heptan-2-yl]methanone] had an IC50 of 74.3 nM. Turning to `O=C(N1CC2(CC(Oc3ccc(C(F)(F)F)nc3)C2)C1)N1CC2(CC(c3ccc(C(F)(F)F)nc3)C2)C1` [Example 525, [6-[6-(trifluoromethyl)-3-pyridyl]-2-azaspiro[3.3]heptan-2-yl]-[6-[[6-(trifluoromethyl)-3-pyridyl]oxy]-2-azaspiro[3.3]heptan-2-yl]methanone], the 50% inhibitory concentration (IC50) is 698 nM. `O=C(N1CC2(CC(c3ccc(C(F)(F)F)nc3)C2)C1)N1CC2(CN(Cc3ccc(S(=O)(=O)C(F)(F)F)cc3)C2)C1` [Example 526, [6-[6-(trifluoromethyl)-3-pyridyl]-2-azaspiro[3.3]heptan-2-yl]-[6-[[4-(trifluoromethylsulfonyl)phenyl]methyl]-2,6-diazaspiro[3.3]heptan-2-yl]methanone] registered an IC50 of 354 nM. As for `O=C(N1CC(c2ccc(NCC3(C(F)(F)F)CC3)nc2)C1)N1CC2(CC(c3ccc(C(F)(F)F)nc3)C2)C1` [Example 527], the IC50 is 50.9 nM. For `O=C(N1CC(Oc2ccc(C(F)(F)F)c(C3CC3)c2)C1)N1CC2(CC(c3ccc(C(F)(F)F)nc3)C2)C1` [Example 528] the value was 245 nM. As for `CS(=O)(=O)c1cccc(CC2CC3(C2)CN(C(=O)N2CC4(CC(c5ccc(C(F)(F)F)nc5)C4)C2)C3)c1` [Example 529, [6-[(3-methylsulfonylphenyl)methyl]-2-azaspiro[3.3]heptan-2-yl]-[6-[6-(trifluoromethyl)-3-pyridyl]-2-azaspiro[3.3]heptan-2-yl]methanone], 189 nM corresponded to half-maximal inhibition (IC50). The IC50 values of the last two compounds are within 1.5-fold of each other. With `CS(=O)(=O)c1ccc(CC2CC3(C2)CN(C(=O)N2CC4(CC(c5ccc(C(F)(F)F)nc5)C4)C2)C3)cc1` [Example 530, [6-[(4-methylsulfonylphenyl)methyl]-2-azaspiro[3.3]heptan-2-yl]-[6-[6-(trifluoromethyl)-3-pyridyl]-2-azaspiro[3.3]heptan-2-yl]methanone] the figure was 350 nM; with `O=C(N1CC(NCc2ccc(C(F)(F)F)cc2Cl)C1)N1CC2(CC(c3ccc(C(F)(F)F)nc3)C2)C1` [Example 531], 1300 nM. For `CS(=O)(=O)c1ccc(CC2CC3(C2)CN(C(=O)N2CC4(CC(c5ccc(C(F)(F)F)nc5)C4)C2)C3)cc1C(F)(F)F` [Example 532, [6-[[4-methylsulfonyl-3-(trifluoromethyl)phenyl]methyl]-2-azaspiro[3.3]heptan-2-yl]-[6-[6-(trifluoromethyl)-3-pyridyl]-2-azaspiro[3.3]heptan-2-yl]methanone] the value was 131 nM; for `O=C(N1CC(OCc2ccc(F)cc2Cl)C1)N1CC2(CC(c3ccc(C(F)(F)F)nc3)C2)C1` [Example 533, [3-[(2-chloro-4-fluoro-phenyl)methoxy]azetidin-1-yl]-[6-[6-(trifluoromethyl)-3-pyridyl]-2-azaspiro[3.3]heptan-2-yl]methanone], 813 nM. On to `CC(C)c1ccc(N(C)c2ccc(C3CN(C(=O)N4CC5(CC(c6ccc(C(F)(F)F)nc6)C5)C4)C3)cn2)cc1` [Example 534, [3-[6-(4-isopropyl-N-methyl-anilino)-3-pyridyl]azetidin-1-yl]-[6-[6-(trifluoromethyl)-3-pyridyl]-2-azaspiro[3.3]heptan-2-yl]methanone], for which the half-maximal inhibitory concentration (IC50) was 1760 nM. For `O=C(N1CC2(CCC(Cc3ccc(C(F)(F)F)nc3)C2)C1)N1CC2(CC(c3ccc(C(F)(F)F)nc3)C2)C1` (stereo not drawn) [Example 535, [6-[6-(trifluoromethyl)-3-pyridyl]-2-azaspiro[3.3]heptan-2-yl]-[6-[[6-(trifluoromethyl)-3-pyridyl]methyl]-2-azaspiro[3.4]octan-2-yl]methanone] the value was 170 nM; for `N#Cc1cc(CC2CC3(C2)CN(C(=O)N2CC4(CC(c5ccc(C(F)(F)F)nc5)C4)C2)C3)ccc1C(F)(F)F` [Example 536, 2-(trifluoromethyl)-5-[[2-[6-[6-(trifluoromethyl)-3-pyridyl]-2-azaspiro[3.3]heptane-2-carbonyl]-2-azaspiro[3.3]heptan-6-yl]methyl]benzonitrile], 13.9 nM.

With `O=C(N1CC(c2ccc(-c3ccc(Cl)cc3Cl)cn2)C1)N1CC2(CC(c3ccc(C(F)(F)F)nc3)C2)C1` [Example 537, [3-[5-(2,4-dichlorophenyl)-2-pyridyl]azetidin-1-yl]-[6-[6-(trifluoromethyl)-3-pyridyl]-2-azaspiro[3.3]heptan-2-yl]methanone], the IC50 was 80.3 nM. The compound `CS(=O)(=O)c1ccc(-c2ccc(C3CN(C(=O)N4CC5(CC(c6ccc(C(F)(F)F)nc6)C5)C4)C3)cn2)c(Cl)c1` [Example 538, [3-[6-(2-chloro-4-methylsulfonyl-phenyl)-3-pyridyl]azetidin-1-yl]-[6-[6-(trifluoromethyl)-3-pyridyl]-2-azaspiro[3.3]heptan-2-yl]methanone] displayed an IC50 of 381 nM.

`O=C(N1CC(c2ccc(-c3ccc(Cl)cc3F)cn2)C1)N1CC2(CC(c3ccc(C(F)(F)F)nc3)C2)C1` [Example 539, [3-[5-(4-chloro-2-fluoro-phenyl)-2-pyridyl]azetidin-1-yl]-[6-[6-(trifluoromethyl)-3-pyridyl]-2-azaspiro[3.3]heptan-2-yl]methanone] gave an IC50 of 176 nM. Take `CC(C)(C)c1nc(-c2ccc(C(=O)N3CC4(CC(n5cc(C#N)cn5)C4)C3)cc2)no1` [compound 21, 1-[2-[4-(5-tert-butyl-1,2,4-oxadiazol-3-yl)benzoyl]-2-azaspiro[3.3]heptan-6-yl]pyrazole-4-carbonitrile]: 3370 nM corresponded to half-maximal inhibition (IC50). This IC50 is about 19-fold higher than that of the compound before. On to `O=C(N1CC2(CC(n3cnc(C4CC4)n3)C2)C1)C12CCC(COCC3(C(F)(F)F)CC3)(CC1)C2` [compound 161, [6-(3-cyclopropyl-1,2,4-triazol-1-yl)-2-azaspiro[3.3]heptan-2-yl]-[4-[[1-(trifluoromethyl)cyclopropyl]methoxymethyl]norbornan-1-yl]methanone], for which the half-maximal inhibitory concentration (IC50) was 184 nM.

For `O=C(C1CC(OCC2(C(F)(F)F)CC2)C1)N1CC2(CC(n3cnc(C4CC4)n3)C2)C1` (stereo not drawn) [compound 176, [6-(3-cyclopropyl-1,2,4-triazol-1-yl)-2-azaspiro[3.3]heptan-2-yl]-[3-[[1-(trifluoromethyl)cyclopropyl]methoxy]cyclobutyl]methanone], inhibition was half-maximal at 1440 nM (IC50). This IC50 is about 7.8-fold higher than that of the compound before.
